Test results published in patent US8536187B2 (Gilead Sciences, Inc., priority 2008, dated 2013).
pEC50: −log10 of the molar value.

Tests used:
[1] = test system: HCV replicon in human hepatoma Huh-7 cell line; assay: Anti-HCV replicon assay, EC50 (luciferase luminescence); assay type: cell-based; conditions: Hepatitis C virus, Huh-7, 72 h
Procedure, shortened: (§1)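 Huh-7 cells carrying HCV replicon (6000/well) incubated with serially diluted compound, 0.5% DMSO final, 3 days at 37° C, 5% CO2. EC50 from luciferase luminescence after 30 min lysis/substrate at room temperature; CC50 from CellTiter-Glo luminescence after 10 min at room temperature.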

[2] = CC50 assay (CellTiter-Glo) in Huh-7 HCV replicon cells; assay type: cell-based; conditions: human
Procedure, shortened: as §1

| Compound | pEC50 [1] | CC50 at 3 days ([2]; Table 2, 3 days incubation) [nM] | CC50 at 3 days ([2]; Table 1, 3 days incubation) [nM] |
| --- | --- | --- | --- |
| COc1ccc(-c2ccc3nc(NCc4ccc(S(N)(=O)=O)cc4)nc(NC4(C(F)(F)F)CC4)c3n2)cc1S(C)(=O)=O [Example 28, 4-{[6-(3-Methanesulfonyl-4-methoxy-phenyl)-4-(1-trifluoromethyl-cyclopropylamino)-pyrido[3,2-d]pyrimidin-2-ylamino]-methyl}-benzenesulfonamide] | > 7.00 | 1000 to 10000 | – |
| CC1(Oc2nc(NCc3cc(Cl)cc(S(N)(=O)=O)c3)nc3ccc(C#CC4CC4)nc23)CC1 [Example 301, 3-chloro-5-((6-(2-cyclopropyl-ethynyl)-4-(1-methylcyclo-propoxy)pyrido[3,2-d]pyrimidin-2-ylamino)methyl) benzenesulfonamide] | > 7.00 | > 10000 | – |
| CS(=O)(=O)c1cc(-c2ccc3nc(NCc4ccc(S(N)(=O)=O)cc4)nc(NCC(F)(F)F)c3n2)ccc1OC(F)F [Example 164, 4-((6-(4-(difluoromethoxy)-3-(methylsulfonyl)phenyl)-4-(2,2,2-trifluoroethylamino)pyrido[3,2-d]pyrimidin-2-ylamino)methyl)benzene-sulfonamide] | > 7.00 | > 10000 | – |
| CS(=O)(=O)c1cccc(-c2ccc3nc(NCCO)nc(NCC(F)(F)F)c3n2)c1 [Example 162, 2-(6-(3-(methylsulfonyl)phenyl)-4-(2,2,2-trifluoroethyl-amino)pyrido[3,2-d]pyrimidin-2-ylamino)ethanol] | 5.70 to 6.60 | > 10000 | – |
| Cc1cc(S(N)(=O)=O)ccc1CNc1nc(NCC(F)(F)F)c2nc(-c3ccc(F)cc3)ccc2n1 [Example 4, 4-{[6-(4-Fluoro-phenyl)-4-(2,2,2-trifluoro-ethylamino)-pyrido[3,2-d]pyrimidin-2-ylamino]-methyl}-3-methyl-benzenesulfonamide] | 5.70 to 6.60 | – | > 25000 |
| c1ncn(-c2ccc(CNc3nc(C4CC4)c4nc(-c5ccc(OC6CC6)nc5)ccc4n3)cc2)n1 [Example 267, N-(4-(1H-1,2,4-triazol-1-yl)benzyl)-6-(6-cyclopropoxy-pyridin-3-yl)-4-cyclopropyl-pyrido[3,2-d]pyrimidin-2-amine] | 6.60 to 7.00 | > 10000 | – |
| C[C@H](Cn1cncn1)Nc1nc(NCC(F)(F)F)c2nc(-c3ccc(OC(F)F)c(S(C)(=O)=O)c3)ccc2n1 [Example 206, N^2-((R)-1-(1H-1,2,4-triazol-1-yl)propan-2-yl)-6-(4-(difluoromethoxy)-3-(methylsulfonyl)phenyl)-N^4-(2,2,2-trifluoroethyl) pyrido[3,2-d]pyrimidine-2,4-diamine] | 5.70 to 6.60 | > 10000 | – |
| CC[C@@H](Nc1nc(NCC(F)(F)F)c2nc(-c3ccc(OC)c(S(C)(=O)=O)c3)ccc2n1)c1ccc(S(N)(=O)=O)cc1 [Example 154, 4-((R)-1-(6-(4-methoxy-3-(methylsulfonyl)phenyl)-4-(2,2,2-trifluoroethylamino)pyrido[3,2-d]pyrimidin-2-ylamino)propyl)benzene-sulfonamide] | 6.60 to 7.00 | > 10000 | – |
| Cc1cc(S(N)(=O)=O)ccc1C(C)Nc1nc(NCC(F)(F)F)c2nc(-c3ccc(F)cc3)ccc2n1 (stereo not shown) [Example 10, 4-{1-[6-(4-Fluoro-phenyl)-4-(2,2,2-trifluoro-ethylamino)-pyrido[3,2-d]pyrimidin-2-ylamino]-ethyl}-3-methyl-benzenesulfonamide] | 6.60 to 7.00 | – | < 10000 |
| C=Cc1ccc2nc(N[C@H](C)c3ccc(S(N)(=O)=O)cc3)nc(NCC(F)(F)F)c2n1 [Example 312, (R)-4-(1-(4-(2,2,2-trifluoro-ethylamino)-6-vinylpyrido [3,2-d]pyrimidin-2-ylamino)ethyl)benzenesulfonamide] | 6.60 to 7.00 | > 10000 | – |
| NS(=O)(=O)c1ccc(CNc2nc(OC3CC3)c3nc(C#CC4CC4)ccc3n2)cc1 [Example 286, 4-((4-cyclopropoxy-6-(2-cyclopropylethynyl)pyrido [3,2-d]pyrimidin-2-ylamino)methyl)benzenesulfonamide] | 6.60 to 7.00 | > 10000 | – |
| CC(C)Oc1nc(NCc2ccc(-n3cncn3)cc2)nc2ccc(C#CC3CC3)nc12 [Example 308, N-(4-(1H-1,2,4-triazol-1-yl)benzyl)-6-(2-cyclopropyl-ethynyl)-4-isopropoxypyrido [3,2-d]pyrimidin-2-amine] | 5.70 to 6.60 | > 10000 | – |
| NS(=O)(=O)c1ccc(CNc2nc(NCC(F)(F)F)c3nc(C#CC4CC4)ccc3n2)cc1 [Example 279, 4-((6-(2-cyclopropylethynyl)-4-(2,2,2-trifluoroethylamino)pyrido[3,2-d]pyrimidin-2-ylamino)methyl)benzene-sulfonamide] | 6.60 to 7.00 | > 10000 | – |
| NS(=O)(=O)c1ccc(CNc2nc(NC3(C(F)(F)F)CC3)c3nc(-c4ccc(F)nc4)ccc3n2)cc1 [Example 96, 4-((6-(6-fluoropyridin-3-yl)-4-(1-(trifluoromethyl)cyclopropyl-amino)pyrido[3,2-d]pyrimidin-2-ylamino)methyl)benzene-sulfonamide] | > 7.00 | 1000 to 10000 | – |
| COCc1ccc(-c2ccc3nc(NCc4ccc(S(N)(=O)=O)cc4)nc(NCC(F)(F)F)c3n2)cc1S(C)(=O)=O [Example 146, 4-((6-(4-(methoxymethyl)-3-(methylsulfonyl)phenyl)-4-(2,2,2-trifluoroethylamino)pyrido[3,2-d]pyrimidin-2-ylamino)methyl)benzene-sulfonamide] | > 7.00 | > 10000 | – |
| CCOc1ccc(-c2ccc3nc(NCc4ccc(-n5ccnc5)cc4)nc(NCC(F)(F)F)c3n2)cc1S(N)(=O)=O [Example 262, 5-(2-(4-(1H-imidazol-1-yl)benzylamino)-4-(2,2,2-trifluoroethylamino)pyrido [3,2-d]pyrimidin-6-yl)-2-ethoxybenzenesulfonamide] | > 7.00 | 1000 to 10000 | – |
| COc1ccc(-c2ccc3nc(N[C@H](C)c4ccc(-n5cncn5)cc4)nc(NCC(F)(F)F)c3n2)cc1S(C)(=O)=O [Example 150, N^2-((R)-1-(4-(1H-1,2,4-triazol-1-yl)phenyl)ethyl)-6-(4-methoxy-3-(methylsulfonyl)phenyl)-N^4-(2,2,2-trifluoroethyl) pyrido[3,2-d]pyrimidine-2,4-diamine] | > 7.00 | 1000 to 10000 | – |
| C[C@@H](Nc1nc(OC2CCC2)c2nc(-c3ccc(OC4CC4)nc3)ccc2n1)c1ccc(S(N)(=O)=O)cc1 [Example 252, 4-((R)-1-(4-cyclobutoxy-6-(6-cyclopropoxypyridin-3-yl)pyrido[3,2-d]pyrimidin-2-ylamino)ethyl)benzene-sulfonamide] | > 7.00 | 1000 to 10000 | – |
| NS(=O)(=O)c1ccc(CNc2nc(NC3(C(F)(F)F)CC3)c3nc(C#CC4CC4)ccc3n2)cc1 [Example 92, 4-((6-(2-cyclopropylethynyl)-4-(1-(trifluoromethyl)cyclopropyl-amino)pyrido[3,2-d]pyrimidin-2-ylamino)methyl)benzene-sulfonamide] | > 7.00 | 1000 to 10000 | – |
| CS(=O)(=O)c1cccc(CNc2nc(NC3(C(F)(F)F)CC3)c3nc(-c4ccc(F)cc4C#N)ccc3n2)c1 [Example 104, 2-(2-(3-(methylsulfonyl)benzylamino)-4-(1-(trifluoromethyl)cyclopropyl-amino)pyrido[3,2-d]pyrimidin-6-yl)-5-fluorobenzonitrile] | 6.60 to 7.00 | > 10000 | – |
| COc1ccc(-c2ccc3nc(NC(C)c4ccc(-n5cncn5)cc4)nc(NC4(C(F)(F)F)CC4)c3n2)cc1S(C)(=O)=O (stereo not shown) [Example 97, N^2-(1-(4-(1H-1,2,4-triazol-1-yl)phenyl)ethyl)-6-(4-methoxy-3-(methylsulfonyl)phenyl)-N^4-(1-(trifluoromethyl)cyclopropyl)pyrido[3,2-d] pyrimidine-2,4-diamine] | > 7.00 | > 10000 | – |
| CCOc1ccc(-c2ccc3nc(NCc4ccc(-n5cncn5)cc4)nc(NCC(F)(F)F)c3n2)cc1S(N)(=O)=O [Example 243, 5-(2-(4-(1H-1,2,4-triazol-1-yl)benzylamino)-4-(2,2,2-trifluoroethylamino)pyrido [3,2-d]pyrimidin-6-yl)-2-ethoxybenzenesulfonamide] | > 7.00 | > 10000 | – |
| CC(Cn1cncn1)Nc1nc(NC2(C(F)(F)F)CC2)c2nc(-c3ccc(N)nc3)ccc2n1 (stereo not shown) [Example 31, 6-(6-amino-pyridin-3-yl)-N2-(1-methyl-2-[1,2,4]triazol-1-yl-ethyl)-N4-(1-trifluoromethyl-cyclopropyl)-pyrido[3,2-d]pyrimidine-2,4-diamine] | > 7.00 | > 10000 | – |
| C[C@@H](Nc1nc(NC2(C(F)(F)F)CC2)c2nc(-c3ccc(F)cc3)ccc2n1)c1ccc(S(N)(=O)=O)c(C(F)(F)F)c1 [Example 119, (R)-4-(1-(6-(4-fluorophenyl)-4-(1-(trifluoromethyl)cyclo-propylamino)pyrido[3,2-d]pyrimidin-2-ylamino)ethyl)-2-(trifluoromethyl)benzene-sulfonamide] | 5.70 to 6.60 | > 10000 | – |
| COc1ccc(-c2ccc3nc(NCc4ccc(F)c(F)c4)nc(NC4(C(F)(F)F)CC4)c3n2)cc1S(C)(=O)=O [Example 44, N^2-(3,4-difluorobenzyl)-6-(4-methoxy-3-(methylsulfonyl)phenyl)-N^4-(1-(trifluoromethyl)cyclopropyl)pyrido[3,2-d] pyrimidine-2,4-diamine] | > 7.00 | 1000 to 10000 | – |
| CS(=O)(=O)c1cccc(-c2ccc3nc(NCC(O)CO)nc(NCC(F)(F)F)c3n2)c1 (stereo not shown) [Example 158, 3-(6-(3-(methylsulfonyl)phenyl)-4-(2,2,2-trifluoroethylamino)pyrido[3,2-d]pyrimidin-2-ylamino)propane-1,2-diol] | 5.70 to 6.60 | > 10000 | – |
